Laboratory results from paper PMC6934184, “Selective DNA-PKcs inhibition extends the therapeutic index of localized radiotherapy and chemotherapy” (The Journal of Clinical Investigation, 2019).

Biological target: T1, CAMKK2 (CaMKK beta) (Homo sapiens, UniProt Q96RR4)
T1 construct: purchased Thermo Fisher Scientific (Life Technologies) SelectScreen
Test: SelectScreen LanthaScreen
Format: binding
Conditions: read-out: % displacement
Method in brief: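 NU5455 was profiled across the SelectScreen Broad panel of kinase activity and binding assays. Z'LYTE reactions such as CSF1R ran at apparent Km ATP, while the Adapta CAMK1 assay used ATP listed as 10. Values are given as percent.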

T1 sequence (Q96RR4 whole entry): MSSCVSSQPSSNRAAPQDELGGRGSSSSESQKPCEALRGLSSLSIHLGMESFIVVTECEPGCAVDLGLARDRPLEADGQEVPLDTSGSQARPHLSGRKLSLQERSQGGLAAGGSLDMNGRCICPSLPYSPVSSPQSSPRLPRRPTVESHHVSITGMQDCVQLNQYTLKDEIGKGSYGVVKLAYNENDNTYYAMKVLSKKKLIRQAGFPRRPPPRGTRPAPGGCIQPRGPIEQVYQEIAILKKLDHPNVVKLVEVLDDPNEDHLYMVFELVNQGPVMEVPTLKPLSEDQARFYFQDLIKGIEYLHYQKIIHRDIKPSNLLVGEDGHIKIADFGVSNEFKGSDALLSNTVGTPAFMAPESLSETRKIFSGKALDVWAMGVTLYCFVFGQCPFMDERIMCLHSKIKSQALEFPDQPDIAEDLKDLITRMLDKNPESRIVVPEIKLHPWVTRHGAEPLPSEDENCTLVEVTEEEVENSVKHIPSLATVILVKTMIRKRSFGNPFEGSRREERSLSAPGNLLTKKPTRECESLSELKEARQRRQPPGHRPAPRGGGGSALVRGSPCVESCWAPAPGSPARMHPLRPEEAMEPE

**Q.** Which inhibition at 1 µM does the source give for `CN(C(=O)CN1CCOCC1)c1ccc2sc3c(-c4cccc5c(=O)cc(N6CC7CCC(C6)O7)oc45)cccc3c2c1` [NU5455] here?
**A.** 0.9%
